Consider five compounds from publication PMC11915366 (ACS infectious diseases, 2025).

Bounds are passed on as bounds.

For one data set, the system named is E. coli DH5αZ1. Put plainly: Checkerboard FICI, E. coli DH5αZ1. The format is cell-based.
For data set [1], the system named is E. coli DH5αZ1+pZE24-TetX7. Put plainly: Checkerboard FICI, E. coli DH5αZ1+pZE24-TetX7. As to conditions: combination with Tetracycline. The format is cell-based.
Data set [2] deals with E. coli DH5αZ1+pZE24-Tet50. Put plainly: Checkerboard FICI, E. coli DH5αZ1+pZE24-Tet50. To be noted: combination with Tetracycline. The format is cell-based.
Another data set relates to P. aeruginosa Pa-3. Put plainly: Checkerboard FICI, P. aeruginosa Pa-3. It counts as cell-based.
For the next data set, the system named is P. aeruginosa PA 27853. In words: Checkerboard FICI, P. aeruginosa PA 27853. The format is cell-based.
The subject of data set [3] is E. coli DH5αZ1 expressing TetX7 or Tet50 from pZE24 plasmid. In words: MIC by microbroth dilution, inhibitor alone or with fixed 8 μg/mL TC. As to conditions: fixed TC concentration of 8 μg/mL; inhibitor concentration needed to rescue TC activity. It counts as cell-based.
The subject of another data set is M. smegmatis mc^2155. In words: Checkerboard FICI, M. smegmatis mc^2155 expressing TetX-HA. The format is cell-based. As to conditions: combination with Tetracycline.
The subject of the next data set is E. coli DH5αZ1+pZE24. Put plainly: Checkerboard FICI, E. coli DH5αZ1+pZE24. It counts as cell-based. As to conditions: combination with Tetracycline; E. coli DH5αZ1+pZE24 (empty vector).
The format of data set [4] is in vitro ADME. As to conditions: E. coli cell lysate, 37 °C; LC-MS (A405 for acetate control).
Data set [5] concerns E. coli DH5αZ1 expressing TetX7 or Tet50 from pZE24 plasmid. To be noted: E. coli expressing TetX7 and Tet50; cited from earlier work.
Another data set concerns human red blood cells. It counts as cell-based. To be noted: concentrations up to 500 μM (~250 μg/mL); 1 hour at 37 °C.
Another data set addresses T1, Tet50 (Unknown prokaryotic organism, UniProt A0A059WYP6).
T1 sequence (A0A059WYP6 1-388): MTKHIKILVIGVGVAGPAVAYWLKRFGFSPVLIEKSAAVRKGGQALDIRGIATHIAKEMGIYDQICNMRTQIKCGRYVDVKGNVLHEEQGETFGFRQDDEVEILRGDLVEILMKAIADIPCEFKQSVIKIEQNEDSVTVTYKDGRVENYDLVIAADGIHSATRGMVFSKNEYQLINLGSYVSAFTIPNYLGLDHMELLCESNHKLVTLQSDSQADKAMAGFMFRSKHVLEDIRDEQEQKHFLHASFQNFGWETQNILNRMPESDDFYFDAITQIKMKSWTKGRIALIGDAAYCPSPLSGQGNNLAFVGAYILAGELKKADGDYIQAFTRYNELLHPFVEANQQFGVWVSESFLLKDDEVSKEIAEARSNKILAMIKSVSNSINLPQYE
To be noted: Tet(50); cited from earlier work.

The next data set has as its target TetX7 (Pseudomonas aeruginosa, UniProt Q7X2A0). Put plainly: Apparent steady-state kinetics of NADPH consumption. As to conditions: increasing inhibitor concentration, A340. The format is biochemical.
The mark [6] stands for this setting: combination with Tetracycline, P. aeruginosa PA 27853.
The mark [7] stands for this setting: combination with Tetracycline, P. aeruginosa PA 27853 (control lacking TetX7).
[8] abbreviates: combination with Tigecycline, P. aeruginosa PA 27853.

Sequence of TetX7 (Q7X2A0 1-378): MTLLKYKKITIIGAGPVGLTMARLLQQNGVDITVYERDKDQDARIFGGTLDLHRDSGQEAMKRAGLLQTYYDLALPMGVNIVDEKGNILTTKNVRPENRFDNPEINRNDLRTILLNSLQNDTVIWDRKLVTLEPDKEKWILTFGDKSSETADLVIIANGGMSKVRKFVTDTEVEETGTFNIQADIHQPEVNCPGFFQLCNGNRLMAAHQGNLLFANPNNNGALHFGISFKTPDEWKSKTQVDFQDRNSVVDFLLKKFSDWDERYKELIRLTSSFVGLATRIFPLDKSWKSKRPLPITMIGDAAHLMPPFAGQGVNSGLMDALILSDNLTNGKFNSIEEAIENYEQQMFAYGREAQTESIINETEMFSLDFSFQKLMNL

As to `Cc1c2c(c(O)c3c(OC(=O)c4ccccn4)cccc13)C(=O)[C@]1(O)C(=O)C(C(N)=O)=C(O)[C@@H](N(C)C)[C@@H]1C2` [Inhibitor 7], the Effect result with E. coli DH5αZ1 (combination with Tetracycline) is “Additive”; in the data set on E. coli DH5αZ1 (combination with Tigecycline), “Indifferent”; in [1] it was “Additive”; in [2], “Additive”; in the data set on P. aeruginosa Pa-3 (combination with Tetracycline) it was “Indifferent”; in the data set on P. aeruginosa Pa-3 (combination with Tigecycline), “Synergetic”. Further, the Effect entry with P. aeruginosa PA 27853 (setting [6]) is reported as “Indifferent”; in the data set on P. aeruginosa PA 27853 (setting [8]), “Indifferent”; in the data set with M. smegmatis mc^2155, “Additive/Indifferent”; in the data set on E. coli DH5αZ1+pZE24 it was “Indifferent”. The FICI with E. coli DH5αZ1 (combination with Tigecycline) is over 1; in data set [1], 0.625; in data set [2] it was 0.625; in the data set on P. aeruginosa PA 27853 (setting [7]), over 1; in the data set on P. aeruginosa PA 27853 (setting [8]), over 1; in the data set on M. smegmatis mc^2155 it was 0.75–1. Further, the FICI in the data set on E. coli DH5αZ1+pZE24 is listed as 1.125. Besides, the “MIC of inhibitor combined with TC” value in [3] was found to be 2 µg/mL.

Turning to `CC(=O)Oc1ccc([N+](=O)[O-])cc1` [p-NO2-phenyl acetate], the “Stability toward hydrolysis in cell lysate” value in data set [4] is “time- and lysate-dependent increase in A405”.

As to `CN(C)[C@@H]1C(O)=C(C(N)=O)C(=O)[C@@]2(O)C(O)=C3C(=O)c4c(O)cccc4[C@@](C)(O)[C@H]3C[C@@H]12` [TC, tetracycline], in [5], the “MIC of TC” value was over 8 µg/mL.

For the compound `Cc1c2c(c(O)c3c(O)cccc13)C(=O)[C@]1(O)C(=O)C(C(N)=O)=C(O)[C@@H](N(C)C)[C@@H]1C2` [aTC, anhydrotetracycline, reference compound], the Effect result with E. coli DH5αZ1 (combination with Tetracycline) is “Indifferent”; with E. coli DH5αZ1 (combination with Tigecycline) it was “Indifferent”; in the data set on P. aeruginosa Pa-3 (combination with Tetracycline), “Synergetic”; in the data set with P. aeruginosa Pa-3 (combination with Tigecycline), “Synergetic”; in the data set on P. aeruginosa PA 27853 (setting [6]), “Additive”; in the data set with P. aeruginosa PA 27853 (setting [8]), “Additive”. Also, the Effect result in the data set on M. smegmatis mc^2155 is reported as “Indifferent”. For the same compound, the values for the FICI in the data set on E. coli DH5αZ1 (combination with Tetracycline), in the data set with E. coli DH5αZ1 (combination with Tigecycline) and with M. smegmatis mc^2155 were over 1, over 1 and 1, respectively. Further, the Hemolysis entry in the data set with human red blood cells is “No hemolysis”. Besides, at Tet50, the “Kapp of NADPH consumption” value was 2.0 ± 0.3 µM.

In the case of `Cc1c2c(c(O)c3c(OC(=O)c4cccnc4)cccc13)C(=O)[C@]1(O)C(=O)C(C(N)=O)=C(O)[C@@H](N(C)C)[C@@H]1C2` [Inhibitor 8], the Effect result with E. coli DH5αZ1 (combination with Tetracycline) is given as “Indifferent”; in the data set with E. coli DH5αZ1 (combination with Tigecycline), “Indifferent”; in data set [1] it was “Synergetic”; in data set [2], “Synergetic”; in the data set on P. aeruginosa Pa-3 (combination with Tetracycline), “Indifferent”; with P. aeruginosa Pa-3 (combination with Tigecycline) it was “Additive”. The Effect entry is reported as “Indifferent” in the data set with P. aeruginosa PA 27853 (setting [6]), “Indifferent” with P. aeruginosa PA 27853 (setting [8]), “Additive/Indifferent” with M. smegmatis mc^2155 and “Indifferent” in the data set with E. coli DH5αZ1+pZE24. In addition, the FICI with E. coli DH5αZ1 (combination with Tetracycline) was over 1; in the data set with E. coli DH5αZ1 (combination with Tigecycline) it was over 1; in data set [1], 0.375; in data set [2], 0.265; with P. aeruginosa PA 27853 (setting [7]), over 1; in the data set on P. aeruginosa PA 27853 (setting [8]) it was over 1. Also, the values for the FICI in the data set on M. smegmatis mc^2155 and with E. coli DH5αZ1+pZE24 were 0.75–1 and 1, respectively. Further, the “Vmax of NADPH consumption” value on TetX7 worked out at 0.05 ± 0.02 min⁻¹. Further, the “MIC of inhibitor combined with TC” value in data set [3] is 4 µg/mL.
